According to article PMC9481151, “Discovery of new symmetrical and asymmetrical nitrile-containing 1,4-dihydropyridine derivatives as dual kinases and P-glycoprotein inhibitors: synthesis, in vitro assays, and in silico studies” (Journal of Enzyme Inhibition and Medicinal Chemistry, 2022):
Values after ≈ are worked out from the molar mass of the structure shown. Values joined by “and” are separate entries in the source; they are usually repeats but may differ in a detail not shown here. Identical values can stand only once.

What was measured:
SR = assay: NCI single dose (10 µM) SRB screen; assay type: cell-based, human; conditions: leukaemia, 48 h
HOP-62 = assay: NCI single dose (10 µM) SRB screen; assay type: cell-based, human; conditions: non-small cell lung cancer, 48 h
NCI-H226 = assay: NCI single dose (10 µM) SRB screen; assay type: cell-based, human; conditions: non-small cell lung cancer, 48 h
NCI-H522 = assay: NCI single dose (10 µM) SRB screen; assay type: cell-based, human; conditions: non-small cell lung cancer, 48 h
KM12 = assay: NCI single dose (10 µM) SRB screen; assay type: cell-based, human; conditions: colon cancer, 48 h
SW-620 = assay: NCI single dose (10 µM) SRB screen; assay type: cell-based, human; conditions: colon cancer, 48 h
SK-MEL-28 = assay: NCI single dose (10 µM) SRB screen; assay type: cell-based, human; conditions: melanoma, 48 h
SK-MEL-5 = assay: NCI single dose (10 µM) SRB screen; assay type: cell-based, human; conditions: melanoma, 48 h
UACC-62 = assay: NCI single dose (10 µM) SRB screen; assay type: cell-based, human; conditions: melanoma, 48 h
DU-145 = assay: NCI single dose (10 µM) SRB screen; assay type: cell-based, human; conditions: prostate cancer, 48 h
MCF7 = assay: NCI single dose (10 µM) SRB screen; assay type: cell-based, human; conditions: breast cancer, 48 h
[1] = tested on: drug-resistant HCT-116/ADR cells; assay: Potentiation of DOX cytotoxicity (reversal DOX effect, P-gp modulation); assay type: cell-based, human; conditions: IC50 (DOX) without modulator / IC50 (DOX) with modulator
EGFR = EGFR (Homo sapiens, UniProt P00533); assay: EGFR kinase inhibitory activity; assay type: biochemical; conditions: for EGFR Potency: (IC50 lapatinib/IC50 Compound)*100; for IC50: read-out: EGFR IC50 ± SD
HER-2 = HER-2 (Homo sapiens, UniProt P04626); assay: HER-2 kinase inhibitory activity; assay type: biochemical; conditions: for HER-2 Potency: (IC50 lapatinib/IC50 Compound)*100; for IC50: read-out: HER-2 IC50 ± SD
BTK = BTK (Homo sapiens, UniProt Q06187); assay: BTK inhibitory activity; assay type: biochemical; conditions: for BTK Potency: (IC50 lapatinib/IC50 Compound)*100; for IC50: read-out: BTK IC50 ± SD
HCT-116 cells [2] = assay: Annexin V–FITC apoptosis assay; assay type: cell-based, human; conditions: HCT-116, 10 µM, 24 h
Text: Apoptosis induction is the most important mechanism by chemotherapeutics killing tumour cells.[62]^,[63] Phosphatidylserine (PS) is translocated from the inside to the outside of the plasma membrane during apoptosis, causing cellular alterations. Annexin-V binds to PS and can be employed as a sensitive probe on the plasma membrane’s outer side.[64]^,[65]
PS externalisation was identified using the apoptosis detection kit (Annexin V-FITC/PI) (BD Biosciences) in accordance with the manufacturer’s guidelines.[79]

HCT-116 cells [3] = assay: In vitro cell cycle analysis (DNA flow cytometry); assay type: cell-based, human; conditions: HCT-116, 24 h, IC50 concentrations
Method: Targeting the cancer cell cycle has been developed as a encouraging approach for cancer therapy.[66]
The cells were centrifuged, frozen in cold 75% ethanol, washed in phosphate buffered saline, resuspended with […] RNase, then stained with […] PI, and analysed with a FACS Calibur (Becton Dickinson, BD, Franklin Lakes, NJ). The cell cycle distributions were determined using Becton Dickinson’s CellQuest software version 5.1.[80]

HCT-116/ADR cells = assay: cells; conditions: Homo sapiens, HCT-116, read-out: Cytotoxicity IC50, HCT-116/ADR
HCT-116 cells [4] = assay: In vitro cytotoxicity; conditions: Homo sapiens, HCT-116, read-out: Cytotoxicity IC50, HCT-116
Bacillus subtilis = assay: Agar well diffusion method; conditions: for zone of inhibition at 1000 µg/mL: Bacillus subtilis, 24 h, read-out: Diameter of inhibition zone, B. subtilis; for % activity index, B. subtilis: relative to ciprofloxacin
Escherichia coli = assay: Agar well diffusion method; conditions: for zone of inhibition at 1000 µg/mL: Escherichia coli, 24 h, read-out: Diameter of inhibition zone, E. coli; for % activity index, E. coli: relative to ciprofloxacin
Pseudomonas aeruginosa = assay: Agar well diffusion method; conditions: for zone of inhibition at 1000 µg/mL: Pseudomonas aeruginosa, 24 h, read-out: Diameter of inhibition zone, P. aeruginosa; for % activity index, P. aeruginosa: relative to ciprofloxacin
S. aureus = assay: MIC, two-fold microbroth dilution method; conditions: Staphylococcus aureus, read-out: MIC (µg/mL) S. aureus
B. subtilis = assay: MIC, two-fold microbroth dilution method; conditions: Bacillus subtilis, read-out: MIC (µg/mL) B. subtilis
E. coli = assay: MIC, two-fold microbroth dilution method; conditions: Escherichia coli, read-out: MIC (µg/mL) E. coli
P. aeruginosa = assay: MIC, two-fold microbroth dilution method; conditions: Pseudomonas aeruginosa, read-out: MIC (µg/mL) P. aeruginosa
C. albicans = assay: MIC, two-fold microbroth dilution method; conditions: Candida albicans, read-out: MIC (µg/mL) C. albicans
A. flavus = assay: MIC, two-fold microbroth dilution method; conditions: Aspergillus flavus, read-out: MIC (µg/mL) A. flavus

HER-2, sequence (P04626 23-1255): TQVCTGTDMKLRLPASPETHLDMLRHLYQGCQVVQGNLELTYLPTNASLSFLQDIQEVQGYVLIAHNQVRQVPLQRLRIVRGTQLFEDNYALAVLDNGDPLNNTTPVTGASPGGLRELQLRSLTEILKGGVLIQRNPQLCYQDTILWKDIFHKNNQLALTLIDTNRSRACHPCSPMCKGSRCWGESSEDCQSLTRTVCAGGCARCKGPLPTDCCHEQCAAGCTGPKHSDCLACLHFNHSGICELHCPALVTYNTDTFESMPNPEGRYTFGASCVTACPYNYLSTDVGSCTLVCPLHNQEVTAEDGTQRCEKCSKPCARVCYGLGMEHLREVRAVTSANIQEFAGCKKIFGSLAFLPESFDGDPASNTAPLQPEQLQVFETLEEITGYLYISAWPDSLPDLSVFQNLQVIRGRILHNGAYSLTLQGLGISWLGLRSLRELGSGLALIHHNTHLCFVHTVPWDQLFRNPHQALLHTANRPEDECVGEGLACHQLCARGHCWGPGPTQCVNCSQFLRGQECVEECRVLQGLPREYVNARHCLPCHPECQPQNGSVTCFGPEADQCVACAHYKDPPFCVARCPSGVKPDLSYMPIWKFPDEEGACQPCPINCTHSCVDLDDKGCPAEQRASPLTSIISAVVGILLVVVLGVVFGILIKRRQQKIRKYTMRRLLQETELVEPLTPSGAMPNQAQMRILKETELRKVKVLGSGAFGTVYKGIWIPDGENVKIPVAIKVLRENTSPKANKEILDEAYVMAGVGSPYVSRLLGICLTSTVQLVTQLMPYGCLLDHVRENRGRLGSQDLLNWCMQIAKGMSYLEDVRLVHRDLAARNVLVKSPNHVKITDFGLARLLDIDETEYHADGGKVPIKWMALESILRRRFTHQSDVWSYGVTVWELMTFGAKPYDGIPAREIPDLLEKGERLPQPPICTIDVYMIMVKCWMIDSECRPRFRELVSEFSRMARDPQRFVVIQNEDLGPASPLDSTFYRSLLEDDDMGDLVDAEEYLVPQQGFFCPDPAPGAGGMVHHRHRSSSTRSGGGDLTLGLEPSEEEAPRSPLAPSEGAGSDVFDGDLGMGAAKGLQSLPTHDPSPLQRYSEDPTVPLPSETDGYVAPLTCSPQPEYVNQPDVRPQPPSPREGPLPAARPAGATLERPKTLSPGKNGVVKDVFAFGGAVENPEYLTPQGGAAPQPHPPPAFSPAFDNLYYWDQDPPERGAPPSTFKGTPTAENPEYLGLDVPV
EGFR, sequence (P00533 25-1210): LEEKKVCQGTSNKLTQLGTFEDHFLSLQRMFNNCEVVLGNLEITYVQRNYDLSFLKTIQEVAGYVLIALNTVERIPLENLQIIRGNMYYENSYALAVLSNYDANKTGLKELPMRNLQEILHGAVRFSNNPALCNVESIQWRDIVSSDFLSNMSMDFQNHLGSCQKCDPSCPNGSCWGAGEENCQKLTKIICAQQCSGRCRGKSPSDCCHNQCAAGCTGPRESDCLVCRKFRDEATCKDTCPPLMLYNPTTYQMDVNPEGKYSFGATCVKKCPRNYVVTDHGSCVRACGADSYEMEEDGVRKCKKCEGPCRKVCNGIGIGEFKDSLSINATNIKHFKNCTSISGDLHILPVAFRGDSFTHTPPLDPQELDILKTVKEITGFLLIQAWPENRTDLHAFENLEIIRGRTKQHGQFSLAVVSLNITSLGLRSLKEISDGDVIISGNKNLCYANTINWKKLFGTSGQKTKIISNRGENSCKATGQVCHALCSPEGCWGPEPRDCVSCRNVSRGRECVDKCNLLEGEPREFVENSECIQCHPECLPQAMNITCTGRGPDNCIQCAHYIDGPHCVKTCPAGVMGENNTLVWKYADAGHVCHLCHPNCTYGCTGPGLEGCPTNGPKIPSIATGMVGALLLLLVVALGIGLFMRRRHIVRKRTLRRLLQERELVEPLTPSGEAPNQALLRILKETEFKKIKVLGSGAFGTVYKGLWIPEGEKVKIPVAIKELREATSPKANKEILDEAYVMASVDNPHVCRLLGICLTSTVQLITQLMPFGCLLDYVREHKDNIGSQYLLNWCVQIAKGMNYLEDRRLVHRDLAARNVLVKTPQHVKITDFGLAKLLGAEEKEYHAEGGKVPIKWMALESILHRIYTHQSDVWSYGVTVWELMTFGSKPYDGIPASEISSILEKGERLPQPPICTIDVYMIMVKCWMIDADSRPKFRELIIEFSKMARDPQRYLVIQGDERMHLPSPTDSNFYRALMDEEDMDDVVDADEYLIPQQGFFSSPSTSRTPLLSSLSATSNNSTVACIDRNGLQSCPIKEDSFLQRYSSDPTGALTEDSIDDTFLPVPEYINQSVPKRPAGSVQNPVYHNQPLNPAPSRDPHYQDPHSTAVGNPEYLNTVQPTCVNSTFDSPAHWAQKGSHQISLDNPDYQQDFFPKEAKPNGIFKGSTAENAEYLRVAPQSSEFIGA
BTK, sequence (Q06187 whole entry): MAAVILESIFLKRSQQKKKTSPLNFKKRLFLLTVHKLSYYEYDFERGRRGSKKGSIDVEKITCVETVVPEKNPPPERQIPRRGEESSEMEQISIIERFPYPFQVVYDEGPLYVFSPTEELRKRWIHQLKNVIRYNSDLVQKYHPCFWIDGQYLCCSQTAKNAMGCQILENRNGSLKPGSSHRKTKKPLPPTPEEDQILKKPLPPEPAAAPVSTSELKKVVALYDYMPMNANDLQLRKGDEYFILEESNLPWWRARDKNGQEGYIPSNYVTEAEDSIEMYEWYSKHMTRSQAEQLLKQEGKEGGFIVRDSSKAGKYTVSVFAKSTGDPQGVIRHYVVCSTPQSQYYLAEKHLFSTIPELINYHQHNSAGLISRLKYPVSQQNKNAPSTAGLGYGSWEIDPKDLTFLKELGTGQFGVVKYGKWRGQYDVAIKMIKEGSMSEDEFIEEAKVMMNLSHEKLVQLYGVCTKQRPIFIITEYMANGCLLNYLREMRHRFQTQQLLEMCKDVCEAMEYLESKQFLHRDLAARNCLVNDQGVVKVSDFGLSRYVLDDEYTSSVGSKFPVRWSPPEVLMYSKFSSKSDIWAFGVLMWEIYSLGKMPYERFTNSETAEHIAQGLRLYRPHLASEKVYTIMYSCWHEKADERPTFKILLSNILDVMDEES

Structure (SMILES)	GI% SR (SR) [%]	GI% HOP-62 (HOP-62)	GI% NCI-H226 (NCI-H226)	GI% NCI-H522 (NCI-H522) [%]	GI% KM12 (KM12)	GI% SW-620 (SW-620)	GI% SK-MEL-28 (SK-MEL-28)	GI% SK-MEL-5 (SK-MEL-5)	GI% UACC-62 (UACC-62) [%]	GI% DU-145 (DU-145)	GI% MCF7 (MCF7)	RF (reversal fold activity) [1]	EGFR Potency (EGFR) [%]	IC50 (EGFR) [nM]	HER-2 Potency (HER-2) [%]	IC50 (HER-2) [nM]	BTK Potency (BTK) [%]	% activity index, B. subtilis (Bacillus subtilis)	% activity index, E. coli (Escherichia coli)	% activity index, P. aeruginosa (Pseudomonas aeruginosa)	other results
CC1=C(C(=O)OCc2ccccc2)C(c2cccc(C#N)c2)C(C(=O)OCc2ccccc2)=C(C)N1 [Compound 1g, Dibenzyl 4-(3-cyanophenyl)-2,6-dimethyl-1,4-dihydropyridine-3,5-dicarboxylate]	57	10%	46%	46	45%	65%	34%	55%	38	26%	53%	23.48	87.44	62.2 ± 0.76	103.20	70.55 ± 0.63	101.99	47.8%	38.5%	69.6%	IC50 (BTK): 60.27 ± 0.42 nM; early apoptosis ratio (lower-right quadrant) (HCT-116 cells [2]): 4.37–6.17%; late apoptosis ratio (upper-right quadrant) (HCT-116 cells [2]): 9.45–11.28%; %G0-G1 (HCT-116 cells [3]): 39.17–43.25%; %G2-M (HCT-116 cells [3]): 26.03–31.84%; %Pre-G1 (HCT-116 cells [3]): 15.57–19.36%; IC50 (HCT-116/ADR cells): 10610 ± 100 nM; IC50 (HCT-116 cells [4]): 990 ± 580 nM; zone of inhibition at 1000 µg/mL (Bacillus subtilis): 11 mm; zone of inhibition at 1000 µg/mL (Escherichia coli): 10 mm; zone of inhibition at 1000 µg/mL (Pseudomonas aeruginosa): 16 mm; MIC (S. aureus): 64 µg/mL (≈ 134 µM); MIC (B. subtilis): 32 µg/mL (≈ 66.9 µM); MIC (E. coli): 32 µg/mL (≈ 66.9 µM); MIC (P. aeruginosa): 32 µg/mL (≈ 66.9 µM); MIC (C. albicans): 64 µg/mL (≈ 134 µM); MIC (A. flavus): > 64 µg/mL
CCOC(=O)C1=C(C)NC(C)=C(C(=O)OCc2ccccc2)C1c1cccc(C#N)c1 (racemic) [Compound 2l, (±)-3- Benzyl 5-ethyl 4-(3-cyanophenyl)-2,6-dimethyl-1,4-dihydropyridine-3,5-dicarboxylate]	78	54%	41%	90	74%	70%	48%	45%	66	42%	78%	10.05	72.29	75.2 ± 0.95	89.10	81.7 ± 0.92	96.35	– (Values below 25 are of limited value and not shown as they refer either to inactive or non-diffusing compounds)	– (Values below 25 are of limited value and not shown as they refer either to inactive or non-diffusing compounds)	– (Values below 25 are of limited value and not shown as they refer either to inactive or non-diffusing compounds)	IC50 (BTK): 63.8 ± 0.55 nM; early apoptosis ratio (lower-right quadrant) (HCT-116 cells [2]): 4.37–6.17%; late apoptosis ratio (upper-right quadrant) (HCT-116 cells [2]): 9.45–11.28%; %G0-G1 (HCT-116 cells [3]): 39.17–43.25%; %G2-M (HCT-116 cells [3]): 26.03–31.84%; %Pre-G1 (HCT-116 cells [3]): 15.57–19.36%; IC50 (HCT-116/ADR cells): 15830 ± 130 nM; IC50 (HCT-116 cells [4]): 1110 ± 450 nM
COC(=O)C1=C(C)NC(C)=C(C(=O)OCc2ccccc2)C1c1cccc(C#N)c1 (racemic) [Compound 2e, (±)-3-Benzyl 5-methyl 4-(3-cyanophenyl)-2,6-dimethyl-1,4-dihydropyridine-3,5-dicarboxylate]	33	16%	31%	24	39%	45%	27%	37%	37	15%	29%	7.68	67.68	80.4 ± 1.26	95.13	76.5 ± 0.87	74.91	– (Values below 25 are of limited value and not shown as they refer either to inactive or non-diffusing compounds)	– (Values below 25 are of limited value and not shown as they refer either to inactive or non-diffusing compounds)	30.4%	IC50 (BTK): 82.1 ± 1.4 nM; early apoptosis ratio (lower-right quadrant) (HCT-116 cells [2]): 4.37–6.17%; late apoptosis ratio (upper-right quadrant) (HCT-116 cells [2]): 9.45–11.28%; %G0-G1 (HCT-116 cells [3]): 39.17–43.25%; %G2-M (HCT-116 cells [3]): 26.03–31.84%; %Pre-G1 (HCT-116 cells [3]): 15.57–19.36%; IC50 (HCT-116/ADR cells): 29400 ± 450 nM; IC50 (HCT-116 cells [4]): 1270 ± 420 nM; zone of inhibition at 1000 µg/mL (Pseudomonas aeruginosa): 7 mm
CCOC(=O)C1=C(C)NC(C)=C(C(=O)OC(C)(C)C)C1c1cccc(C#N)c1 (racemic) [Compound 2j, (±)-3-Tert-butyl 5-ethyl 4-(3-cyanophenyl)-2,6-dimethyl-1,4-dihydropyridine-3,5-dicarboxylate]	22	– (Only GI% ≥ 10 are shown)	– (Only GI% ≥ 10 are shown)	13	– (Only GI% ≥ 10 are shown)	– (Only GI% ≥ 10 are shown)	– (Only GI% ≥ 10 are shown)	– (Only GI% ≥ 10 are shown)	10	– (Only GI% ≥ 10 are shown)	– (Only GI% ≥ 10 are shown)	–	–	–	–	–	–	65.2%	69% and 69.2%	86% and 86.9%	melting point: 152 to 153 °C; zone of inhibition at 1000 µg/mL (Bacillus subtilis): 15 mm; zone of inhibition at 1000 µg/mL (Escherichia coli): 18 mm; zone of inhibition at 1000 µg/mL (Pseudomonas aeruginosa): 20 mm; MIC (S. aureus): 8 µg/mL (≈ 20.9 µM); MIC (B. subtilis): 4 µg/mL (≈ 10.5 µM); MIC (E. coli): 1 µg/mL (≈ 2.61 µM); MIC (P. aeruginosa): 4 µg/mL (≈ 10.5 µM); MIC (C. albicans): 16 µg/mL (≈ 41.8 µM); MIC (A. flavus): 8 µg/mL (≈ 20.9 µM)
